≈ marks a conversion by molar mass, not a printed value.
Experiments:
[1] = tested on: BRD pathogens, M. haemolytica and P. multocida; assay: MIC screening panel of BRD pathogens (antibacterial / non-antibacterial); conditions: read-out: antibacterial / non-antibacterial (MIC for the BRD pathogens)
P. multocida 46572 = assay: In vivo mouse lung infection challenge model (murine efficacy); parameters: species or system CD-1 female mice; conditions: 20 mg/kg subcutaneous, P. multocida challenge; harmonized against the comparative vehicle survival rate
Experimental: The challenge organism was P. multocida 46572. Target challenge concentration was 5×10^2 CFU/mouse. Isolated colonies from overnight growth (37° C. with 5% CO2) on trypticase soy agar (TSA II) blood plates were transferred to room temperature Brain Heart Infusion Broth (BHIB). The broth culture was incubated 3.5-4 hours to approximately mid-log phase of growth, as measured by forward light scatter at 600 nm (OD600, 0.200). The culture was centrifuged to collect the bacterial pellet. The pellet was re-suspended in BHIB and adjusted to provide an approximate concentration of 2.7 log^10 colony forming units (CFU) in 0.04 mL at the highest concentration. The challenge inoculum concentration was confirmed by serial dilutions of the inoculum for CFU enumeration. On Day −5, CD-1 female mice were received. Mice were given standard rodent diet and water ad libitum. On Day 0, bacterial inoculum (0.04 mL) was administered to each mouse (n=36) intranasally. Compounds of the invention were dosed at 20 mg/kg (0.1 mL) in a buffered (˜pH 5.4) propylene glycol, monothioglycerol and water solution by subcutaneous injection. Animals were observed from Days 1-10. The study was terminated on Day 10. In addition, some treatment groups were sampled at 6, 24, and 48 hours post bacterial challenge for RNA sequence analysis of lung tissue.
The murine efficacy model (P. multocida challenge) was optimized, and the treatment group size was powered to be able to observe statistically significant improvement of survival to expected ranges for immunomodulatory compounds. The experimental design was a randomized complete block design. Mice were individually identified and treatment groups comingled within a cage, with every treatment group equally represented across cages. Mortality was the primary variable. Mortality data was analyzed using a generalized mixed model with fixed effect of treatment and random effect of block. Survival time was also analyzed using the SAS PHREG (survival analysis) procedure to examine whether there were significant differences between treatment groups and the control group. Numerous compounds of the invention and M9 (positive control) were tested in this model at a dose of 20 mg/kg. Typical percent survival for no treatment control is in the range of 0-20% based on study to study variation in challenge inoculum and rate of infection. […] Mouse survival for M9 was about 90-100%, further supporting its antibacterial properties against the bacterial strain (Table 3). Survival values presented are harmonized against the comparative vehicle survival rate.

IL-1β = assay: LPS-stimulated whole bovine blood assay, MSD cytokine detection; type: cell-based; conditions: overstimulation of IL-1β, LPS-stimulated bovine whole blood
TNF-α = assay: as above; type: cell-based; conditions: Bos taurus, LPS-stimulated bovine whole blood; read-out: TNF-α (IC50 μM)
IL-6 = assay: as above; type: cell-based; conditions: Bos taurus, LPS-stimulated bovine whole blood; read-out: IL-6 (IC50 μM)
Description: In order to correlate RNA sequencing data to cytokine changes the whole blood assay was utilized. […] The enhancement result represents an overall stimulation of cytokine levels due to cellular stress or potential toxicity with increasing concentrations of the compound, representing a typical bell shape response curve for immunomodulatory activity.

H. somni = assay: In-vitro MIC model (CLSI broth micro-dilution)
P. multocida [2] = assay: In-vitro MIC model (CLSI broth micro-dilution)
M. haemolytica = assay: In-vitro MIC model (CLSI broth micro-dilution)
P. multocida [3] = assay: Murine P. multocida intranasal challenge study with lung tissue RNA sequence analysis; type: in vivo, mice; conditions: subcutaneous 18 hours after challenge (5×10^3 CFU/mouse): tulathromycin 16 mg/kg, M9 32 mg/kg, ceftiofur 9 mg/kg; placebo 0%
Experimental: In one murine P. multocida intranasal challenge study, mice were administered tulathromycin (16 mg/kg; T02), M9 (32 mg/kg; T03), or ceftiofur (9 mg/kg; T04) by subcutaneous injection 18 hours after bacterial challenge (5×10^3 CFU/mouse) for lung tissue RNA sequence analysis. Survival at Day 7 was about 80%, 50%, and 90% for T02, T03, and T04, respectively, compared to placebo at 0%. Differential gene expression from total lung tissue RNA sequence analysis indicated at least 226 unique genes were up or down regulated (with significance) for T03. Output from ingenuity pathway analysis of these unique genes predicted major upstream regulators of the involved pathways. Data was analyzed based on the number of genes being modulated in the same direction that were associated with a given upstream regulator. An activation z-score of 2 or greater is considered significant and the direction change is indicated by +(activated) or − (inhibited). The top 5 pathways included: IL-9 signaling, glucocorticoid receptor signaling, prolactin signaling, JAK STAT signaling, and IL-17 signaling. The top 6 upstream regulators (activation z-score) included: lipopolysaccharide (−6.725), TNF (−4.669), IFNG (−5.759), IL-1β (−5.947), STAT1 (−2.787), and poly rl:rC-RNA (−5.289). Even though this study was run in the murine model, the top upstream regulators identified as being modulated by M9 include an almost ubiquitous overlap with the pathways identified in the natural disease study as being key mediators in BRD, and therefore is modulating highly relevant pathways in BRD pathobiology.

[4] = P. multocida (33) lung isolates at necropsy, natural BRD study
[5] = M. haemolytica (116) lung isolates at necropsy, natural BRD study
[6] = H. somni (25) lung isolates at necropsy, natural BRD study

| SMILES | MIC [1] [µg/mL] | Mouse Murine Percent Survival (P. multocida 46572) [%] | IL-1β OS of LPS (IL-1β) [µM] | IC50 (TNF-α) [µM] | IC50 (IL-6) [µM] | other results |
| --- | --- | --- | --- | --- | --- | --- |
| CCCNC[C@]1(O)[C@H](C)O[C@@H](O[C@H]2[C@H](C)[C@@H](O[C@@H]3O[C@H](C)C[C@H](N(Cc4ccc(OC)cc4)C(=O)N(C)c4ccccc4)[C@H]3O)[C@](C)(O)C[C@@H](C)CN[C@H](C)[C@@H](O)[C@](C)(O)[C@@H](CC)OC(=O)[C@@H]2C)C[C@@]1(C)OC [Example H-60, 1-((2S,3R,4S,6R)-2-(((2R,3S,4R,5R,8R,10R,11R,12S,13S,14R)-2-ethyl-3,4,10-trihydroxy-13-(((2R,4R,5S,6S)-5-hydroxy-4-methoxy-4,6-dimethyl-5-((propylamino)methyl)tetrahydro-2H-pyran-2-yl)oxy)-3,5,8,10,12,14-hexamethyl-15-oxo-1-oxa-6-azacyclopentadecan-11-yl)oxy)-3-hydroxy-6-methyltetrahydro-2H-pyran-4-yl)-1-(4-methoxybenzyl)-3-methyl-3-phenylurea] | > 64 | 72 | 3 | 5 | 7 | – |
| CS(=O)(=O)c1ccc([C@@H](O)[C@@H](CF)NC(=O)C(Cl)Cl)cc1 [florfenicol] | – | – | – | – | – | MIC (H. somni; Histophilus somni): 0.12 to 2 µg/mL (≈ 0.335 to 5.58 µM) |
| CCCN1C[C@H](C)[C@@H](O)[C@](C)(O)[C@@H](CC)OC(=O)[C@H](C)[C@@H](O[C@H]2C[C@@](C)(OC)[C@@H](O)[C@H](C)O2)[C@H](C)[C@@H](O[C@@H]2O[C@H](C)C[C@H](N(C)C)[C@H]2O)[C@](C)(O)C[C@H]1C [gamithromycin] | – | – | – | – | – | MIC (P. multocida [2]; 25 different strains of P. multocida): 1 to 2 µg/mL; MIC (M. haemolytica; 25 different strains of M. haemolytica): 0.5 to 1 µg/mL; MIC (H. somni; H. somni (31 strains)): 0.25 to 8 µg/mL |
| CCN1CCN(c2cc3c(cc2F)c(=O)c(C(=O)O)cn3C2CC2)CC1 [enrofloxacin] | – | – | – | – | – | MIC (H. somni; Histophilus somni): 0.06 to 1 µg/mL (≈ 0.167 to 2.78 µM) |
| CCCNC[C@]1(O)[C@H](C)O[C@@H](O[C@H]2[C@H](C)[C@@H](O[C@@H]3O[C@H](C)C[C@H](N(C)C(=O)N(C)c4ccc(C(F)(F)F)cc4)[C@H]3O)[C@](C)(O)C[C@@H](C)CN(C)[C@H](C)[C@@H](O)[C@](C)(O)[C@@H](CC)OC(=O)[C@@H]2C)C[C@@]1(C)OC [Example H-100, 1-((2S,3R,4S,6R)-2-(((2R,3S,4R,5R,8R,10R,11R,12S,13S,14R)-2-ethyl-3,4,10-trihydroxy-13-(((2R,4R,5S,6S)-5-hydroxy-4-methoxy-4,6-dimethyl-5-((propylamino)methyl)tetrahydro-2H-pyran-2-yl)oxy)-3,5,6,8,10,12,14-heptamethyl-15-oxo-1-oxa-6-azacyclopentadecan-11-yl)oxy)-3-hydroxy-6-methyltetrahydro-2H-pyran-4-yl)-1,3-dimethyl-3-(4-(trifluoromethyl)phenyl)urea] | > 64 | 19 | 16 | 6 | 10 | – |
| CCCNC[C@]1(O)[C@H](C)O[C@@H](O[C@H]2[C@H](C)[C@@H](O[C@@H]3O[C@H](C)C[C@H](N(C)C(=O)N(C)c4ccc(C(F)(F)F)cc4)[C@H]3O)[C@](C)(O)C[C@@H](C)CN[C@H](C)[C@@H](O)[C@](C)(O)[C@@H](CC)OC(=O)[C@@H]2C)C[C@@]1(C)OC [Example H-13, 1-((2S,3R,4S,6R)-2-(((2R,3S,4R,5R,8R,10R,11R,12S,13S,14R)-2-ethyl-3,4,10-trihydroxy-13-(((2R,4R,5S,6S)-5-hydroxy-4-methoxy-4,6-dimethyl-5-((propylamino)methyl)tetrahydro-2H-pyran-2-yl)oxy)-3,5,8,10,12,14-hexamethyl-15-oxo-1-oxa-6-azacyclopentadecan-11-yl)oxy)-3-hydroxy-6-methyltetrahydro-2H-pyran-4-yl)-1,3-dimethyl-3-(4-(trifluoromethyl)phenyl)urea] | > 64 | 59 | 6 | 12 | 9 | – |
| CC[C@H]1OC(=O)[C@H](C)[C@@H](O[C@H]2C[C@@](C)(OC)[C@@](C)(O)[C@H](C)O2)[C@H](C)[C@@H](O[C@@H]2O[C@H](C)C[C@H](N(C)C(=O)N(C)c3ccc(C(F)(F)F)cc3)[C@H]2O)[C@](C)(O)C[C@@H](C)CN[C@H](C)[C@@H](O)[C@]1(C)O [Example B-13, 1-((2S,3R,4S,6R)-2-(((2R,3S,4R,5R,8R,10R,11R,12S,13S,14R)-2-ethyl-3,4,10-trihydroxy-13-(((2R,4R,5S,6S)-5-hydroxy-4-methoxy-4,5,6-trimethyltetrahydro-2H-pyran-2-yl)oxy)-3,5,8,10,12,14-hexamethyl-15-oxo-1-oxa-6-azacyclopentadecan-11-yl)oxy)-3-hydroxy-6-methyltetrahydro-2H-pyran-4-yl)-1,3-dimethyl-3-(4-(trifluoromethyl)phenyl)urea] | > 64 | 48 | 16 | 14 | 51 | – |
| CO/N=C(\C(=O)N[C@@H]1C(=O)N2C(C(=O)O)=C(CSC(=O)c3ccco3)CS[C@H]12)c1csc(N)n1 [ceftiofur] | – | – | – | – | – | Survival at Day 7 (P. multocida [3]): ~90% |
| CCCN1C[C@H](C)[C@@H](O)[C@](C)(O)[C@@H](CC)OC(=O)[C@H](C)[C@@H](O[C@H]2C[C@@](C)(OC)[C@@H](O)[C@H](C)O2)[C@H](C)[C@@H](O[C@@H]2O[C@H](C)C[C@H](N(C)C)[C@H]2O)[C@](C)(O)C[C@H]1C [gamithromycin (Zactran)] | – | – | – | – | – | MIC50 (P. multocida [2]; [4]): 1 µg/mL (≈ 1.29 µM); MIC90 (P. multocida [2]; [4]): >64 µg/mL; MIC50 (M. haemolytica; [5]): 1 µg/mL (≈ 1.29 µM); MIC90 (M. haemolytica; [5]): >64 µg/mL; MIC50 (H. somni; [6]): 0.25 µg/mL (≈ 0.322 µM); MIC90 (H. somni; [6]): 2 µg/mL (≈ 2.57 µM); MIC Range (H. somni; [6]): 0.12 to 2 µg/mL |
| CC[C@H]1OC(=O)[C@H](C)[C@@H](O[C@H]2C[C@@](C)(OC)[C@](O)(CN3CC(N4CCOCC4)C3)[C@H](C)O2)[C@H](C)[C@@H](O[C@@H]2O[C@H](C)C[C@H](N(C)C(=O)N(C)c3ccccc3)[C@H]2O)[C@](C)(O)C[C@@H](C)CN[C@H](C)[C@@H](O)[C@]1(C)O [Example J-4, 1-((2S,3R,4S,6R)-2-(((2R,3S,4R,5R,8R,10R,11R,12S,13S,14R)-2-ethyl-3,4,10-trihydroxy-13-(((2R,4R,5S,6S)-5-hydroxy-4-methoxy-4,6-dimethyl-5-((3-morpholinoazetidin-1-yl)methyl)tetrahydro-2H-pyran-2-yl)oxy)-3,5,8,10,12,14-hexamethyl-15-oxo-1-oxa-6-azacyclopentadecan-11-yl)oxy)-3-hydroxy-6-methyltetrahydro-2H-pyran-4-yl)-1,3-dimethyl-3-phenylurea] | > 64 | 5 | 1 | 7 | 3 | – |
